In patent US9549941B2, “Compositions and methods for treating hepatitis C virus” (priority 2011, dated 2017):

Legend:
[1] = Moisture sorption of GS-7977 Form 6; type: physicochemical
Description: (§1) In one aspect, the disclosed composition comprises polymorphic Form 6 of GS-7977.

[2] = Chemical stability of GS-7977 Form 6 on open storage; type: physicochemical; conditions: opened conditions at 40° C./75% RH for 30 days
Description: as §1

[3] = system: 1a-H77 sub-genomic replicon, NS5B S282T; assay: microbe, parasite or virus in culture; type: cell-based, hepatitis C virus; conditions: Hepatitis C virus, read-out: EC50 S282T
Experimental: (§2) (Lam et al., J. Virology (2011) 85(23): 12334-12342; Lam et al., Antimicrob. Agents Chemother. (2012) 56(6): 3359-3368.) S282T mutations in NS5B were created by site-directed mutagenesis in 1a-H77, 1b con-1, and 2a JFH1 sub-genomic replicons. 1b con-1-based chimeric replicons containing 2b, 3a, 4a, 5a, or 6a NS5B were also engineered to harbor the S282T mutation. […] Relative percentages of mutant and WT were assessed by deep sequencing.

[4] = system: 1b con-1-based chimeric replicon containing 5a NS5B, wild-type; assay: Transient replicon assay; type: cell-based; conditions: Hepatitis C virus, read-out: EC50 WT
Experimental: as §2

[5] = system: 1a-H77 sub-genomic replicon, wild-type NS5B; assay: Transient replicon assay; type: cell-based; conditions: Hepatitis C virus, read-out: EC50 WT
Experimental: as §2

[6] = system: 1b con-1-based chimeric replicon containing 6a NS5B, wild-type; assay: Transient replicon assay; type: cell-based; conditions: Hepatitis C virus, read-out: EC50 WT
Experimental: as §2

[7] = system: mixture of 50% S282T and 50% WT in GT2a replicons; assay: Long-term passaging study with deep sequencing; type: cell-based, hepatitis C virus; conditions: after fifteen days
Description: as §2, with “In vitro studies have shown that S282T is the primary mutation selected by GS-7977 in HCV genotype 1a, 1b and 2a replicon cells. (Lam” for “(Lam”
(See also Han et al., 63rd Annual Meeting of the American Association for the Study of Liver Diseases, Poster 1078, Nov. 11, 2012.)

Hepatitis C virus = conditions: ribavirin alone, patients with CHC; cited from earlier work

SMILES | hygroscopicity [1] | moisture sorption ([1]; room temperature and 90% RH) | chemical stability [2] | EC50 [3] [nM] | EC50 [4] [nM] | EC50 [5] [nM] | EC50 [6] [nM] | population WT [7] [%] | effect on HCV RNA levels (Hepatitis C virus)
CC(C)OC(=O)[C@H](C)N[P@](=O)(OC[C@H]1O[C@@H](n2ccc(=O)[nH]c2=O)[C@](C)(F)[C@@H]1O)Oc1ccccc1 [Form 6] | not hygroscopic | less than 0.2% | chemically stable | – | – | – | – | – | –
NC(=O)c1ncn([C@@H]2O[C@H](CO)[C@@H](O)[C@H]2O)n1 [Ribavirin, 1-β-D-ribofuranosyl-1H-1,2,4-triazole-3-carboxamide, reference compound] | – | – | – | 5 | 1.9 | 21 | 5.3 | 96 | did not reduce HCV RNA levels during or after therapy
